Data taken from patent US9045563B2, “CXC chemokine receptor 4 (CXCR4) antagonistic polypeptide” (priority 2007, dated 2015).
Ends that are not written are not given here.

Columns and labels:
CCR5 = target: T1, CCR5 (Homo sapiens, UniProt P51681); experiment: Ca2+ mobilization in HEK CCR5 cells (indo-1); assay type: cell-based; details: 50 μM peptide
T1 construct: expressed in transfected cells; host or cells: HEK293
Protocol: Ca^2+ responses were recorded.
FIG. 17. CXCR4 antagonistic activities of ALB derivatives. […] CXCR4 or CCR5 expressing HEK293 cells were treated with CXCR4 agonist CXCL12 (10 nM) or CCR5 agonist CCL5 (20 nM), respectively, in the absence (no ALB) or presence of indicated ALB derivatives (50 μM). Calcium responses were recorded as described. Data shown are mean values±standard deviation derived from duplicates relative to peak calcium responses after treatment with agonists only (100%). […] CXCR4 expressing HEK293 cells were treated with Texas Red labeled CXCL12 (CXCL12-Tr) in the presence or absence of ALB peptides. Real-time fluorescence monitoring of ligand-receptor interactions was carried out as described. Shown are bound CXCL12-Tr levels in the presence of ALB peptides relative to CXCL12-Tr only treated cells (100% bound). Values were derived from a duplicate experiment.

CXCR4 = CXCR4 (Homo sapiens, UniProt P61073); experiment: CXCR4 internalization, confocal microscopy of HEK cells expressing EGFP-CXCR4; assay type: cell-based; parameters: expressed in transfected cells; host or cells: HEK293; details: 30 min, 37° C.
Sequence of CXCR4 (P61073 whole entry): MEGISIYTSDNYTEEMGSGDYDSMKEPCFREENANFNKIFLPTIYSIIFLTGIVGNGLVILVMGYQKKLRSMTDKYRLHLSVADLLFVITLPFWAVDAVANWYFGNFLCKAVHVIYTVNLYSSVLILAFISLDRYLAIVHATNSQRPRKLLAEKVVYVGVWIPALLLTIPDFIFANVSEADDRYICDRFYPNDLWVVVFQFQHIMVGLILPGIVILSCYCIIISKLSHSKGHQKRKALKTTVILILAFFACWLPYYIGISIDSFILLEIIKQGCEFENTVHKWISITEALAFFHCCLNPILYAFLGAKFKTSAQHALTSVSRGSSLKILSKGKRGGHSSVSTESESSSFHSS
Excerpt: Upon stimulation with the appropriate chemokine, numerous G-protein-coupled receptors get internalized by clathrin-coated pits. As an antagonist of CXCR4 responses, ALB 408-423 may also alter chemokine induced CXCR4 receptor internalization. To analyze the antagonistic properties of ALB408-423 on CXCL12 mediated CXCR4 internalization, EGFP-CXCR4 receptor expressing cells were split and grown for 2 days in 24-well plates on 12-mm glass coverslips coated with rat type I collagen. The cells were then incubated for periods ranging from 0 to 30 min in HEPES-BSA buffer supplemented with protease inhibitors containing either 100 nM CXCL12 or 50 μM of ALB408-423 or 100 nM CXCL12 plus 50 μM of ALB408-423 at 37° C. […] Cells were then analyzed with an inverted microscope (LEICA) and a laser scanning confocal imaging system (LEICA AOBS SP2 MP) using a HCX PL APO 1bd.BL 63X 1.40 OIL UV objective (n° 506192). […] EGFP was excited with the 488 nm laser-line of the Argon laser and detected and amplified by one photomultiplier tube (PMT) in the so-called mCFP Channel from 495 to 550 nm (PMT1 610 High Voltage -HV-, offset 0). […]
FIG. 15. […] Receptor endocytosis was monitored on HEK cells expressing EGFP-CXCR4 and analyzed by confocal microscopy immediately (0 min, upper panel) after addition of CXCL12, ALB408-423 or both compounds, or 30 min later (lower panel). […]

[1] = system: CCR5 tropic HIV-1 variants; experiment: Infection of TZM-bl cells by R5 tropic HIV-1 variants, GalScreen; assay type: cell-based
Protocol: 5000 TZM-bl cells were seeded in 100 μl of DMEM (10% FCS, 100 U/ml of penicillin G and 100 μg/ml of streptomycin sulfate). ALB408-423 was dissolved in PBS (10 mg/ml). One day later, 20 μl serial dilutions of ALB408-423 in PBS were added to cells and cells were subsequently infected with 0.5 ng of p24 antigen HIV-1 in a total volume of 200 μl. HIV-1 molecular clones differing in coreceptor tropism were used and generated as described (Papkalla et al., J. Virol. 76: 8455-9, 2002).
FIG. 3: Chemically synthesized ALB408-423 specifically blocks X4 tropic HIV-1 infection. TZM-bl cells containing indicated dilutions of peptide were infected with HIV-1 variants differing in their coreceptor tropism. 3 days later Gal Screen assay was used to measure infection rates. […] B) Infection rates in the presence of 500 μg/ml ALB408-423 showing that the peptide specifically blocks X4 but not R5 tropic HIV-1 infection. Data shown are mean values±standard deviation derived from triplicate infections relative to PBS containing cells (100% infection).
After 3 days, infection was detected using GalScreen assay (TROPIX) (example 1). […] In contrast, CCR5 tropic HIV-1 variants were not inhibited even in the presence of very high doses of ALB408-423 (500 μg/ml) (FIG. 3B). Due to the specific inhibition of the infection caused by X4-tropic HIV-1 variants, it is to be assumed that ALB408-423 interacts with the chemokine receptor CXCR4.
Virus stocks were first titrated on TZM-bl cells. Then TZM-bl cells containing 100 μM of peptides were infected with infectivity normalized amounts of X4, dualtropic (X4/R5) or R5 tropic HIV-1.
FIG. 10. ALB408-423 and truncated ALB derivatives specifically block X4 tropic HIV-1 infection. TZM-bl cells either containing PBS or 100 μM of indicated peptides were infected with normalized infectivities of X4, dualtropic or R5 tropic HIV-1 clones. Infection rates were measured 2 days post infection using the GalScreen assay. Shown are mean values (% of PBS treated control)±standard deviations derived from triplicate measurements.

CXCR1 = target: T2, CXCR1 (Homo sapiens, UniProt P25024); experiment: Ca2+ mobilization in HEK EGFP-CXCR1 cells (indo-1); details: 50 μM peptide
T2 sequence (P25024 1-350): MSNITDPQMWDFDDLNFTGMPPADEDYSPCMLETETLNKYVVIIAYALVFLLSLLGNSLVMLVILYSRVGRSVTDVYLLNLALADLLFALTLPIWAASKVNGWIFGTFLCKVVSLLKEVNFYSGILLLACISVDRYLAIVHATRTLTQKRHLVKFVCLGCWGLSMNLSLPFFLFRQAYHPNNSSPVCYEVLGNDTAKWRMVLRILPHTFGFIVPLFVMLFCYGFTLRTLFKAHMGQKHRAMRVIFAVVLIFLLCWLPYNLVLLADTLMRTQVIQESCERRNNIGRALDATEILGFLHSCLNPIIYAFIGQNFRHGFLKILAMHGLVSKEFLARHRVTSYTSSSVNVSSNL
Protocol: Intracellular Ca^2+ release measurement was carried out as described (Palanche et al., 2001, JBC 276:34853-34861; Vollmer et al., 1999, JBC 274:37915-37922) using indo-1 acetoxymethyl ester as the calcium probe. Cellular responses were recorded at 37° C. in stirred 1 mL cuvette with excitation set at 355 nm and emission set at 405 nm and 475 nm using a spectrofluorimeter. The human chemokines CCL5 and CXCL8 were purchased from Becton Dickinson Biosciences (San Jose, Calif.).
Intracellular Ca^2+ responses were measured using a spectrofluorimeter.
Values shown are mean calcium peak responses from duplicate experiments relative to chemokine only treated cells (100%).
Ca^2+ responses were recorded. […] In order to gain insight into compound selectivity, we next characterized the effect of the peptide on calcium responses of various chemokine/receptor pairs.

T1 sequence (P51681 whole entry): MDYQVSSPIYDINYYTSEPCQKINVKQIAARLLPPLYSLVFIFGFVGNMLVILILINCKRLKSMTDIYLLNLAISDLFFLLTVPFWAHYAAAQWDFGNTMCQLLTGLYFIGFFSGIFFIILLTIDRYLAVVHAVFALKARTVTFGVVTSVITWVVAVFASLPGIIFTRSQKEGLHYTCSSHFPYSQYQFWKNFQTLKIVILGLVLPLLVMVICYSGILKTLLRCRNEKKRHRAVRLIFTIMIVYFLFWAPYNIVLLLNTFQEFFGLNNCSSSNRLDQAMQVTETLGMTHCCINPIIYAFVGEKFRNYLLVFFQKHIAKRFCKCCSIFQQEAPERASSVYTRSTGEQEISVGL

**Q.** With “LVRYTKKVPQVSTPTL [ALB408-423, LVRYTKKVPQVSTPTL]” as the sequence, how does the “effect on CCL5-evoked calcium responses” value (CCR5; HEK CCR5 cells) read?
**A.** Its value is “no effect”.

**Q.** What about the “agonism: calcium response induced by the peptide alone, CCR5” value (CCR5; no chemokine) of the same sequence?
**A.** The value was “does not induce any calcium response”.

**Q.** And the “effect on CXCL12 mediated CXCR4 internalization” value (CXCR4; 100 nM CXCL12 plus 50 μM peptide)?
**A.** Its value is “blocked CXCL12 mediated CXCR4 internalization”.

**Q.** And the “CXCR4 internalization by the peptide alone” value (CXCR4; 50 μM)?
**A.** The value was “did not induce internalization of the receptor”.

**Q.** And the “effect on R5 tropic HIV-1 infection” value ([1]; 100 μM peptide)?
**A.** Its value is “no effect”.

**Q.** What about the “inhibition of CCR5 tropic HIV-1 variants” value ([1]; 500 μg/ml) of the same sequence?
**A.** The value was “not inhibited”.

**Q.** And the “effect on CXCL8-evoked calcium responses” value (CXCR1; HEK EGFP-CXCR1 cells)?
**A.** Its value is “no effect”.

**Q.** What about the “agonism: calcium response induced by the peptide alone, CXCR1” value (CXCR1; no chemokine) of the same sequence?
**A.** Its value is “does not induce any calcium response”.
